Source: US11413278B2, “Compounds and methods for promoting stress resistance” (priority 2015, dated 2022)
Entries after “also recorded” stand apart in the source; their conditions may differ. Read-outs that look alike come from different tables or passages of the source.

Experiments:
Format in all cases: cell-based, human
FOXO3 = assay: qPCR analysis of FOXO3-regulated genes; details: for fold induction at 10 µM: Homo sapiens; for K = Sestrin induction: score
Summary of the method: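 WI-38 cells treated with compound at 10 μM for 24 h, followed by Cells-to-Ct RT-qPCR of FOXO3 target genes normalised to B2M, PPIA and GAPDH. FOXO3 or NRF2 dependence tested by prior 10 nM siRNA knockdown (36 h transfection, compound added ~24 h after replating).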

mTOR = mTOR inhibition (RPS6 phosphorylation status), In-Cell Western
Summary of the method: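 WI-38 cells exposed to compounds at 5, 10 and 20 μM for 24 hrs. Fixed cells co-stained overnight at 4° C with anti-RPS and anti-pRPS6 (Ser-235/236) antibodies, then DyLight 680/800 secondaries. Phospho-RPS6 relative to total RPS6 read by near-infrared In-Cell Western imaging.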

LC3A/B puncta = assay: Autophagy induction analysis (LC3A/B puncta immuno-staining); details: for Assay 15: Potential autophagy induction by LC3A/B puncta assays: 10 uM & 20 uM, YES/NO; for Exp. 1, induction of LC3A/B puncta (Up), total intensity normalized by total number of nuclei in the fields / Exp. 1, normalized change of nuclei numbers (Less cells): Exp. 1, 10 μM, 10X objective; for Exp. 1, induction of LC3A/B puncta (Up), total intensity normalized by total number of nuclei in the fields / Exp. 1, normalized change of nuclei numbers (Less cells) / Exp. 2, normalized change of nuclei numbers (Less cells): WI-38 cells; for Exp. 2, normalized change of nuclei numbers (Less cells): 20X objective, lysosomal LAMP co-staining
Summary of the method: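 WI-38 cells were treated with compounds for 24 hrs, then immunostained for LC3A/B (overnight, 4° C) with DAPI counterstain and imaged by high-content microscopy. Experiment 1 used total puncta intensity. Experiment 2 used LAMP2-colocalized (lysosomal) puncta. Intensity was normalized to nuclei count.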

[1] = 24 h, Assay 10(m), at 10 uM, qPCR, read-out: Induction of FOXO3-regulated genes: DDB1 normalized fold-change
[2] = 24 h, Assay 10(m), at 10 uM, qPCR, read-out: Induction of FOXO3-regulated genes: SESN1 normalized fold-change
[3] = WI-38, 24 h, read-out: SESN1 expression
[4] = 10 μM, 24 hrs, WI-38 cells, qPCR, normalized to B2M, n = 4, read-out: DDB1 expression, normalized fold change (FOXO3-regulated gene)
[5] = 10 μM, 24 hrs, WI-38 cells, qPCR, normalized to B2M, n = 4, read-out: SESN1 expression, normalized fold change (FOXO3-regulated gene)
[6] = WI-38 cells, 10 μM, 24 hrs, n=4, qPCR normalized by B2M, read-out: DDB1 Normalized fold change
[7] = WI-38 cells, 10 μM, 24 hrs, n=4, qPCR normalized by B2M, read-out: GADD45A Normalized fold change
[8] = WI-38 cells, 10 μM, 24 hrs, n=4, qPCR normalized by B2M, read-out: SESN1 Normalized fold change
[9] = fold change, qPCR, WI-38 cells, 10 μM, 24 hrs, read-out: Summary of effects on FOXO3-regulated genes: DDB1
[10] = fold change, qPCR, WI-38 cells, 10 μM, 24 hrs, read-out: Summary of effects on FOXO3-regulated genes: SESN1
[11] = qPCR, WI-38 cells, 10 μM, n=4, 24 hrs, normalized by B2M, read-out: CAT Normalized fold change
[12] = qPCR, WI-38 cells, 10 μM, n=4, 24 hrs, normalized by B2M, read-out: SOD2 Normalized fold change
[13] = qPCR, WI-38 cells, 10 μM, n=4, 24 hrs, normalized by B2M, read-out: TXNIP Normalized fold change
[14] = 24 h, Assay 10(m), at 10 uM, qPCR, read-out: Induction of FOXO3-regulated genes: TXNIP normalized fold-change
[15] = 10 μM, 24 hrs, WI-38 cells, qPCR, normalized to B2M, n = 4, read-out: GADD45A expression, normalized fold change (FOXO3-regulated gene)
[16] = 10 μM, 24 hrs, WI-38 cells, qPCR, normalized to B2M, n = 4, read-out: TXNIP expression, normalized fold change (FOXO3-regulated gene)
[17] = fold change, qPCR, WI-38 cells, 10 μM, 24 hrs, read-out: Summary of effects on FOXO3-regulated genes: GADD45A
[18] = fold change, qPCR, WI-38 cells, 10 μM, 24 hrs, read-out: Summary of effects on FOXO3-regulated genes: TXNIP
[19] = 24 h, Assay 10(m), at 10 uM, qPCR, read-out: Induction of FOXO3-regulated genes: GADD45A normalized fold-change

Row | Compound | E = Potential FOXO3 Activation (FOXO3; 2-point score) | fold induction at 10 µM (FOXO3; [2]) | fold induction at 10 µM (FOXO3; [5]) | fold induction at 10 µM (FOXO3; [6]) | fold induction at 10 µM (FOXO3; [7]) | fold induction at 10 µM (FOXO3; [8]) | fold induction at 10 µM (FOXO3; [10]) | fold induction at 10 µM (FOXO3; [11]) | fold induction at 10 µM (FOXO3; [12]) | fold induction at 10 µM (FOXO3; [13]) | K = Sestrin induction (FOXO3) | E = Potential FOXO3 Activation (FOXO3; summary score) | G = mTOR down-regulation (mTOR; 2-point score) | G = mTOR down-regulation (mTOR; summary score) | H = Potential Autophagy Induction (LC3A/B puncta; score) | H = Potential Autophagy Induction (LC3A/B puncta; summary score) | fold induction at 10 µM (FOXO3; [15]) | fold induction at 10 µM (FOXO3; [16]) | fold induction at 10 µM (FOXO3; [17]) | fold induction at 10 µM (FOXO3; [18]) | also measured
1 | NS(=O)(=O)c1ccc(NC(=O)c2ccc([N+](=O)[O-])o2)cc1 [Gr-1A] | 0 | 1.93 | 2.12 | 1.35 | 1.27 | 2.12 | 2.12 | 1.31 | 1.5 | 1.23 | 1 | 0 | 0 | 0 | 1 | 1 | – | – | – | – | Induction of at least two of five FOXO3-regulated genes (SOD2, GADD45A, CAT, DDB1, TXNIP) (FOXO3; 10 μM, 24 hrs, WI-38): significant induction; also recorded: significant, induction; also recorded: induce FOXO3-regulated genes; fold induction at 10 µM (FOXO3; 24 h, Assay 10(m), at 10 uM, qPCR, read-out: Induction of FOXO3-regulated genes: CAT normalized fold-change): 1.36; fold induction at 10 µM (FOXO3; [1]): 1.16; fold induction at 10 µM (FOXO3; [3]): > 1.5; fold induction at 10 µM (FOXO3; 10 μM, 24 hrs, WI-38 cells, qPCR, normalized to B2M, n = 4, read-out: CAT expression, normalized fold change (FOXO3-regulated gene)): 1.31; fold induction at 10 µM (FOXO3; [4]): 1.36; fold induction at 10 µM (FOXO3; fold change, qPCR, WI-38 cells, 10 μM, 24 hrs, read-out: Summary of effects on FOXO3-regulated genes: CAT): 1.31; fold induction at 10 µM (FOXO3; [9]): 1.36; Assay 15: Potential autophagy induction by LC3A/B puncta assays (LC3A/B puncta): YES; Exp. 1, induction of LC3A/B puncta (Up), total intensity normalized by total number of nuclei in the fields (LC3A/B puncta): p < 0.001; Up, 1876%,; Exp. 1, normalized change of nuclei numbers (Less cells) (LC3A/B puncta): Less cells, 55%,; Exp. 2, normalized change of nuclei numbers (Less cells) (LC3A/B puncta; Exp. 2, 10 μM): Less cells, 66%,; Exp. 2, normalized change of nuclei numbers (Less cells) (LC3A/B puncta; Exp. 2, 20 μM): Less cells, 57%,
2 | N=C1S/C(=C\c2cn(-c3ccccc3)nc2-c2cccs2)C(=O)N1c1nccs1 [Gr-6C] | 0 | 1.42 | 1.42 | 1.22 | 2.17 | 1.42 | 1.42 | 1.13 | 1.01 | 0.568 | 0 | 0 | 0 | 0 | 0 | 0 | 2.17 | 0.57 | 2.17 | 0.57 | fold induction at 10 µM (FOXO3; [14]): 0.57
3 | O=C(NCc1cccnc1)/C(=C\c1cccc(Oc2ccccc2)c1)S(=O)(=O)c1ccccc1 [Gr-7A] | 2 | – | – | 0.979 | 1.91 | 1.14 | – | 1.15 | 1.78 | 0.12 | 0 | 2 | 2 | 2 | 0 | 0 | 1.91 | 0.12 | 1.91 | 0.12 | SOD2 expression, normalized fold change (FOXO3-regulated gene) (FOXO3; 10 μM, 24 hrs, WI-38 cells, qPCR, normalized to B2M, n = 4): SOD2 1.78, fold; Potential FOXO3 Activation (>=2 target genes induced, by >=1.5-fold) (FOXO3; Assay 11(n)): YES; fold induction at 10 µM (FOXO3; [19]): 1.91; fold induction at 10 µM (FOXO3; 24 h, Assay 10(m), at 10 uM, qPCR, read-out: Induction of FOXO3-regulated genes: SOD2 normalized fold-change): 1.78; fold induction at 10 µM (FOXO3; [14]): 0.12; Summary of effects on FOXO3-regulated genes: SOD2 (FOXO3; fold change, qPCR, WI-38 cells, 10 μM, 24 hrs): SOD2 1.78,; mTOR down-regulation by p-RPS6 assays (mTOR; Assay 14(q), at 5 uM, 10 uM & 20 uM): YES; Exp. 1, normalized reduction in p-RPS6/RPS6 ratio (mTOR; Exp. 1, In-Cell Western, n=4): ~61% (−), at 20 μM; Exp. 1, normalized reduction in p-RPS6/RPS6 ratio (mTOR; Exp. 1, at 10 μM, In-Cell Western, n=4): ~60% (−), at 10 μM;; Exp. 2, normalized reduction in p-RPS6/RPS6 ratio (mTOR; Exp. 2, at 10 μM, In-Cell Western, n=4): ~75% (−), at 10 μM; Exp. 3, normalized reduction in p-RPS6/RPS6 ratio (mTOR; Exp. 3, In-Cell Western, n=4): ~92% (−), at 20 μM; Exp. 3, normalized reduction in p-RPS6/RPS6 ratio (mTOR; Exp. 3, at 5 μM, In-Cell Western, n=4): ~50% (−), at 5 μM;; Exp. 3, normalized reduction in p-RPS6/RPS6 ratio (mTOR; Exp. 3, at 10 μM, In-Cell Western, n=4): ~89% (−), at 10 μM;; mTOR inhibition (p-RPS6/RPS6), qualitative (mTOR; In-Cell Western): mTOR-inhibiting activities; also recorded: consistently reduced the ratios
4 | CNC(=O)/C(C#N)=C/c1c(Oc2ccc(C(C)(C)C)cc2)nc2ccccn2c1=O [Gr-5D] | 0 | – | – | 0.984 | 0.698 | 1.1 | – | 1.27 | 1.12 | 0.669 | 0 | 0 | 0 | 0 | 0 | 0 | – | 0.67 | – | 0.67 | –
5 | Cc1cc(N)n(-c2ccccc2C(=O)O)n1 [Gr-6A] | 0 | – | – | 1.05 | 0.787 | 1.18 | – | 1.2 | 0.868 | 1.14 | 0 | 0 | 0 | 0 | 0 | 0 | 0.79 | – | 0.79 | – | fold induction at 10 µM (FOXO3; [19]): 0.79
6 | O=C(Nc1cccc(Cl)c1)c1ccc([N+](=O)[O-])o1 [Gr-1D] | 0 | 1.91 | 1.73 | 1.18 | 1.92 | 1.73 | 1.73 | 0.953 | 1.42 | 0.621 | 1 | 0 | 0 | 0 | 1 | 1 | – | 0.62 | – | 0.62 | fold induction at 10 µM (FOXO3; [1]): 1.13; fold induction at 10 µM (FOXO3; [3]): > 1.5; fold induction at 10 µM (FOXO3; [4]): 1.18; fold induction at 10 µM (FOXO3; [9]): 1.18; Assay 15: Potential autophagy induction by LC3A/B puncta assays (LC3A/B puncta): YES; Exp. 1, induction of LC3A/B puncta (Up), total intensity normalized by total number of nuclei in the fields (LC3A/B puncta): p < 0.05; Up, 617%,; Exp. 1, normalized change of nuclei numbers (Less cells) (LC3A/B puncta): Less cells, 67%,; Exp. 2, normalized change of nuclei numbers (Less cells) (LC3A/B puncta; Exp. 2, 10 μM): Less cells, 67%,; Exp. 2, normalized change of nuclei numbers (Less cells) (LC3A/B puncta; Exp. 2, 20 μM): Less cells, 73%,
